In US10179781B2, “Sodium channel modulators for the treatment of pain” (CHROMOCELL CORPORATION, priority 2013, dated 2019):

target: T1, NaV1.7 (Homo sapiens, UniProt Q15858); test: FDSS membrane potential in-vitro assay; type: cell-based; details: HEK293 cells expressing NaV1.7 α, β1, β2, veratridine and scorpion venom stimulation
T1 construct: expressed in transfected cells
T1 sequence (Q15858 whole entry): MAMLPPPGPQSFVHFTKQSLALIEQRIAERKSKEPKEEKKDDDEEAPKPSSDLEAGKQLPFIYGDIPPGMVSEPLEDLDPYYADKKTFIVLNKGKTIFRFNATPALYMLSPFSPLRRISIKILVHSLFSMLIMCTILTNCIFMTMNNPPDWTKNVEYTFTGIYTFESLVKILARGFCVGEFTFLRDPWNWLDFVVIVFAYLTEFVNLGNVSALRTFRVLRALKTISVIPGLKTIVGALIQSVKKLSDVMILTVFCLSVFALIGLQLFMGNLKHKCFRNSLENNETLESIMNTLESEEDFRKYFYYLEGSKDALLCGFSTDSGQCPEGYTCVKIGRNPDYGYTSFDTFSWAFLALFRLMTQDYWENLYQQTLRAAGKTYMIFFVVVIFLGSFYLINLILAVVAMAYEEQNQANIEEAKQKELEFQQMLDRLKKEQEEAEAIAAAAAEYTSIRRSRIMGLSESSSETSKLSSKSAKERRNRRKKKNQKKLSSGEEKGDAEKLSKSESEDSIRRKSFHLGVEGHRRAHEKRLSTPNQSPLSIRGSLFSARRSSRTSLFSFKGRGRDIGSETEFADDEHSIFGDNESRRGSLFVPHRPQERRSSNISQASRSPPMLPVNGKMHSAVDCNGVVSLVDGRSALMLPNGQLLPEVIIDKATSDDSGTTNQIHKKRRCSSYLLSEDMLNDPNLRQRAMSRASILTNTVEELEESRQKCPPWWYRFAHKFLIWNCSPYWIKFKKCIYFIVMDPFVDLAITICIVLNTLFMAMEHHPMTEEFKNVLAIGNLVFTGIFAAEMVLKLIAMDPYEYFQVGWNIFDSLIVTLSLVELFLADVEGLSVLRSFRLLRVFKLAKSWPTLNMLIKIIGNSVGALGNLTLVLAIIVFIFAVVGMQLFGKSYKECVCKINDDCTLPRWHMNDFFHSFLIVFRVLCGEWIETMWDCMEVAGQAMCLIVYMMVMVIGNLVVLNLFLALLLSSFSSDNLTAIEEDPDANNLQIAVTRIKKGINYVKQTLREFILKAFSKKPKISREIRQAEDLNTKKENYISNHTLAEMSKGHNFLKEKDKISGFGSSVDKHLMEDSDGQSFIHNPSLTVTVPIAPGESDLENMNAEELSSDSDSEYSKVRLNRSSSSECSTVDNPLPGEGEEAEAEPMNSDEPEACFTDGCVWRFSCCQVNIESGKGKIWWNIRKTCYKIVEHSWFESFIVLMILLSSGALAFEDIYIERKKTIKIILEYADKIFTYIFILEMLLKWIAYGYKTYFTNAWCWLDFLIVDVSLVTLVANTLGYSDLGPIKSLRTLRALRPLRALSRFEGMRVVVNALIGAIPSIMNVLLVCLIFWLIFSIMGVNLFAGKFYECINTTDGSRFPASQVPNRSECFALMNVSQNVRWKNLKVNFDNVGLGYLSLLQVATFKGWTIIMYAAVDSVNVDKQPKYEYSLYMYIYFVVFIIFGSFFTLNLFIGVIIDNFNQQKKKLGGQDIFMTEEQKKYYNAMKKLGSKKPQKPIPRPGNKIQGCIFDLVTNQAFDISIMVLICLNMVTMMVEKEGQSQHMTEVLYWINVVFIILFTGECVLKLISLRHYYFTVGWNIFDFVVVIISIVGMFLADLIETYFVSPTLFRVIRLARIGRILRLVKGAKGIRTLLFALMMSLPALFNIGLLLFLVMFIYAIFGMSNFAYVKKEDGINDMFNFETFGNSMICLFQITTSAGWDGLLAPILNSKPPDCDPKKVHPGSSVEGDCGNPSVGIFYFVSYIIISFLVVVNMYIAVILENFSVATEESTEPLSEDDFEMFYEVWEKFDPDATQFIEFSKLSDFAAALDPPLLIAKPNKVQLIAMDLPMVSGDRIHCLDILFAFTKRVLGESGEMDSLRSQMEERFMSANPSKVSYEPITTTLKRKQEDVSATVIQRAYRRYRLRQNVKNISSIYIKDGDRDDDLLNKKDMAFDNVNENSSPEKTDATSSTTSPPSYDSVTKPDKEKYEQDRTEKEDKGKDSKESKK
T1 sequence (Q07699 19-218 partner): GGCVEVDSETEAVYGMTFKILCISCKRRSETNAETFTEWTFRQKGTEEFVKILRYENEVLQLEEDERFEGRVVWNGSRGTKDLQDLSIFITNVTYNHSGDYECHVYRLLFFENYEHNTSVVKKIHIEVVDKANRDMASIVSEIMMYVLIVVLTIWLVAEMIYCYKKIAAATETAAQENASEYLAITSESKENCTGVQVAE
T1 sequence (O60939 30-215 partner): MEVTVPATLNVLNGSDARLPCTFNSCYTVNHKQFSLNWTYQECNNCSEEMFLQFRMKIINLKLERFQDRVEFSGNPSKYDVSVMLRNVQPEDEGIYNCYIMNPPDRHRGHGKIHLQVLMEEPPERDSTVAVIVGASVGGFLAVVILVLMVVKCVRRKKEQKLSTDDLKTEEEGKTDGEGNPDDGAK

**Q.** Which IC50 does the source give for `N#Cc1cc(S(=O)(=O)Nc2cscn2)ccc1Oc1ccc(Cl)cc1CCCNCCC(=O)O` [Example 23, 3-((3-(5-chloro-2-(2-cyano-4-(N-(thiazol-4-yl)sulfamoyl)phenoxy)phenyl)propyl)amino)propanoic acid] here?
**A.** > 1000 nM

**Q.** `NC(CCNCCCc1cc(Cl)ccc1Oc1cc(F)c(S(=O)(=O)Nc2cscn2)cc1Cl)C(=O)O` (stereo not shown) [Example 17, 2-amino-4-((3-(5-chloro-2-(2-chloro-5-fluoro-4-(N-(thiazol-4-yl)sulfamoyl)phenoxy)phenyl)propyl)amino)butanoic acid] was tested. Which IC50 did it give?
**A.** > 1000 nM

**Q.** With `O=C(O)C1CCN(CCCc2cc(Cl)ccc2Oc2cc(F)c(S(=O)(=O)Nc3cscn3)cc2Cl)CC1` [Example 14, 1-(3-(5-chloro-2-(2-chloro-5-fluoro-4-(N-(thiazol-4-yl)sulfamoyl)phenoxy)phenyl)propyl)piperidine-4-carboxylic acid] as the molecule, how does the IC50 read?
**A.** > 1000 nM

**Q.** How did the IC50 turn out when `O=C(O)CNCCCc1cc(Cl)ccc1Oc1cc(F)c(S(=O)(=O)Nc2cscn2)cc1F` [Example 21, 2-((3-(5-chloro-2-(2,5-difluoro-4-(N-(thiazol-4-yl)sulfamoyl)phenoxy)phenyl)propyl)amino)acetic acid] was run?
**A.** > 1000 nM

**Q.** With `O=C(O)C1CCCN(CCCc2cc(Cl)ccc2Oc2cc(F)c(S(=O)(=O)Nc3cscn3)cc2Cl)C1` (stereo not shown) [Example 19, 1-(3-(5-chloro-2-(2-chloro-5-fluoro-4-(N-(thiazol-4-yl)sulfamoyl)phenoxy)phenyl)propyl)piperidine-3-carboxylic acid] as the molecule, how does the IC50 read?
**A.** > 1000 nM

**Q.** With `O=C(O)CCNCCCc1cc(Cl)ccc1Oc1cc(F)c(S(=O)(=O)Nc2cscn2)cc1F` [Example 22, 3-((3-(5-chloro-2-(2,5-difluoro-4-(N-(thiazol-4-yl)sulfamoyl)phenoxy)phenyl)propyl)amino)propanoic acid] as the molecule, how does the IC50 read?
**A.** > 1000 nM

tested on: Acetic Acid Writhing Model; test: Acetic Acid Writhing Model (visceral pain); type: in vivo; details: relative to vehicle control; 10 to 30 mg/kg intraperitoneal
Description: Writhing Model The Acetic Acid Writhing Model is associated with visceral pain (abdominal pain, such as stomach pain, and pain caused by, for example, bile duct congestion and kidney stones). A writhing test assesses acute peritoneovisceral pain. After acclimation of 2-3 days, a test compound, positive control or vehicle control is administered by intraperitoneal injection (i.p.) or by oral gavage 15-30 minutes prior to administration of acetic acid. The time of administration of test compound is recorded. For mice: 0.6% Acetic acid solution in saline is injected i.p in a volume of 10 ml/kg. For rats: 4% acetic acid in saline is injected i.p in a volume of 2 ml/kg at T=0 minutes. Each animal is placed in a clear plastic cage. At T=5 minutes, the number of writhing movements is counted over a 45 minute period. Alternatively, the writhing movements are counted over a 5-minute period and repeated every 5 minutes, starting at T=5 minutes over a 45-minute period.

**Q.** For `O=C(O)CNC(=O)c1cc(-c2cc(Cl)ccc2Oc2cc(F)c(S(=O)(=O)Nc3ncns3)cc2Cl)ccn1` [Example 2, 2-(4-(2-(4-(N-(1,2,4-thiadiazol-5-yl)sulfamoyl)-2-chloro-5-fluorophenoxy)-5-chlorophenyl)picolinamido)acetic acid], which “reduction in pain response, writhing” value is on record?
**A.** 48-58%
